Data on 24 compounds can be found in patent US9150577B2, “Heterocyclic compounds containing an indole core” (Boehringer Ingelheim International GmbH, priority 2009, dated 2015).

Human RSK2, sequence (P51812 whole entry): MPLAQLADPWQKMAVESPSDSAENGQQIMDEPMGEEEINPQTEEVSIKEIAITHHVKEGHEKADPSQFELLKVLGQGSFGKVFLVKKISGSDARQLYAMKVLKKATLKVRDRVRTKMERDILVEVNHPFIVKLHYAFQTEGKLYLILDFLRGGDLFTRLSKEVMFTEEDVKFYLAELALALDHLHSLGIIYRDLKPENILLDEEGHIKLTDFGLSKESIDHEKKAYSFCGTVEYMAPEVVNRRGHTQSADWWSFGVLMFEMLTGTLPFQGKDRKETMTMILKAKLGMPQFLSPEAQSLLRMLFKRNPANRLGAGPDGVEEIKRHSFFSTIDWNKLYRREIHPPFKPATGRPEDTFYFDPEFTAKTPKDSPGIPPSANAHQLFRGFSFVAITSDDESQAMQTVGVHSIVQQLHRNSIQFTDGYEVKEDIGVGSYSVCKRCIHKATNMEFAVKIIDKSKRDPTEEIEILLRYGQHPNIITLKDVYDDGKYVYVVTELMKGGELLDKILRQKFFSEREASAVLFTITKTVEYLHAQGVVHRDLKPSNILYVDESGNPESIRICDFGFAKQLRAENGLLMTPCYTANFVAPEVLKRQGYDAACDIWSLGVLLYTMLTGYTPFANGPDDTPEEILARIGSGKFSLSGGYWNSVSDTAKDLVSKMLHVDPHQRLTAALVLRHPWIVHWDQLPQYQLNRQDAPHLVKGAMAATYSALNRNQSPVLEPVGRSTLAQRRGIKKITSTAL

The test concerns the target Human RSK2 (Homo sapiens (Human), UniProt P51812). The test is described as follows: Human RSK2 assay (Kinase Glo Plus, residual ATP).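 Further: recombinant human RSK2 phosphorylating a substrate peptide, 90 min at 28 °C, leftover ATP read by luminescence, RLU scaled between no-kinase background and uninhibited kinase controls, 4-parameter fit.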 The class given is biochemical. (Kinase-Glo measures the ATP left after a reaction by luminescence.)
With `Cn1c(NC(=O)c2ccc3cc4n(c3c2)CCCNC4=O)nc2cc(Cl)ccc21` [Example 49, N-(5-chloro-1-methyl-1H-benzimidazol-2-yl)-1-oxo-2,3,4,5-tetrahydro-1H-[1,4]diazepino[1,2-a]indole-8-carboxamide], the IC50 came to 26 nM.
For `CC1(C)CNC(=O)c2cc3ccc(C(=O)Nc4cn[nH]c4)cc3n2C1` [Example 16, 4,4-dimethyl-1-oxo-N-(1H-pyrazol-4-yl)-2,3,4,5-tetrahydro-1H-[1,4]diazepino[1,2-a]indole-8-carboxamide], the IC50 came to 2500 nM.
With `Cc1ccc2[nH]c(NC(=O)c3ccc4cc5n(c4c3)CCCNC5=O)nc2c1` [Example 39, N-(5-methyl-1H-benzimidazol-2-yl)-1-oxo-2,3,4,5-tetrahydro-1H-[1,4]diazepino[1,2-a]indole-8-carboxamide] the figure was 3 nM; with `Cn1c(NC(=O)c2ccc3cc4n(c3c2)CC(C)(C)CNC4=O)nc2ccccc21` [Example 60, 4,4-dimethyl-N-(1-methyl-1H-benzimidazol-2-yl)-1-oxo-2,3,4,5-tetrahydro-1H-[1,4]diazepino[1,2-a]indole-8-carboxamide], 20 nM.
`CS(=O)(=O)c1ccc2c(c1)nc(NC(=O)c1ccc3cc4n(c3c1)CC1(CCNCC1)CNC4=O)n2CC(F)(F)F` [Example 239, N-[5-(methylsulfonyl)-1-(2,2,2-trifluoroethyl)-1H-benzimidazol-2-yl]-1-oxo-2,3-dihydro-1H-spiro[1,4-diazepino[1,2-a]indole-4,4′-piperidine]-8-carboxamide]: the half-inhibitory concentration (IC50) was 51 nM.
Consider `O=C(Nc1ccc(Cl)cc1)c1ccc2cc3n(c2c1)CCCNC3=O` [Example 4, N-(4-chlorophenyl)-1-oxo-2,3,4,5-tetrahydro-1H-[1,4]diazepino[1,2-a]indole-8-carboxamide], for which the IC50 stood at 190 nM.
In the case of `C[C@H]1CNC(=O)c2cc3ccc(C(=O)Nc4cccnc4)cc3n21` [Example 155, (4S)-4-methyl-1-oxo-N-(pyridin-3-yl)-1,2,3,4-tetrahydropyrazino[1,2-a]indole-7-carboxamide], the IC50 turned out to be 2300 nM.
Regarding `Cc1cnc(NC(=O)c2ccc3cc4n(c3c2)CCCNC4=O)s1` [Example 106, N-(5-methyl-1,3-thiazol-2-yl)-1-oxo-2,3,4,5-tetrahydro-1H-[1,4]diazepino[1,2-a]indole-8-carboxamide], the IC50 came out at 300 nM.
With `O=C(Nc1cnn(Cc2ccccc2)c1)c1ccc2cc3n(c2c1)CC1(CCOCC1)CNC3=O` [Example 31, N-(1-benzyl-1H-pyrazol-4-yl)-1-oxo-2,2′,3,3′,5′,6′-hexahydro-1H-spiro[1,4-diazepino[1,2-a]indole-4,4′-pyran]-8-carboxamide] the figure was 900 nM; with `C[C@@H]1NC(=O)c2cc3ccc(C(=O)Nc4cccnc4)cc3n2[C@H]1C` (relative stereo) [Example 180, Trans-3,4-dimethyl-1-oxo-N-(pyridin-3-yl)-1,2,3,4-tetrahydropyrazino[1,2-a]indole-7-carboxamide], 895 nM.
For the compound `O=C(Nc1ccccn1)c1ccc2cc3n(c2c1)CCCNC3=O` [Example 154, 1-oxo-N-(pyridin-2-yl)-2,3,4,5-tetrahydro-1H-[1,4]diazepino[1,2-a]indole-8-carboxamide], the IC50 stood at 220 nM.
With `CCn1c(NC(=O)c2ccc3cc4n(c3c2)[C@@H](C)[C@H](C)NC4=O)nc2ccccc21` (relative stereo) [Example 80, N-(1-ethyl-1H-benzimidazol-2-yl)-trans-3,4-dimethyl-1-oxo-1,2,3,4-tetrahydropyrazino[1,2-a]indole-7-carboxamide], the half-maximal inhibitory concentration (IC50) was determined as 5 nM.
As for `Cc1cc(NC(=O)c2ccc3cc4n(c3c2)[C@H](C)CCNC4=O)no1` [Example 225, (5R)-5-methyl-N-(5-methyl-1,2-oxazol-3-yl)-1-oxo-2,3,4,5-tetrahydro-1H-[1,4]diazepino[1,2-a]indole-8-carboxamide], the IC50 amounted to 12 nM.
The same measure for `O=C(Nc1ccccc1)c1ccc2cc3n(c2c1)CCCNC3=O` [Example 178, 1-oxo-N-phenyl-2,3,4,5-tetrahydro-1H-[1,4]diazepino[1,2-a]indole-8-carboxamide]: 290 nM; for `CN(C)CCn1c(NC(=O)c2ccc3cc4n(c3c2)CCCNC4=O)nc2ccccc21` [Example 103, N-{1-[2-(dimethylamino)ethyl]-1H-benzimidazol-2-yl}-1-oxo-2,3,4,5-tetrahydro-1H-[1,4]diazepino[1,2-a]indole-8-carboxamide]: 23 nM; for `CN1CCC(n2c(NC(=O)c3ccc4cc5n(c4c3)CCCNC5=O)nc3ccccc32)CC1` [Example 77, N-[1-(1-methylpiperidin-4-yl)-1H-benzimidazol-2-yl]-1-oxo-2,3,4,5-tetrahydro-1H-[1,4]diazepino[1,2-a]indole-8-carboxamide]: 14 nM.
In the case of `CC(C)c1cc(NC(=O)c2ccc3cc4n(c3c2)CCCNC4=O)no1` [Example 213, 1-oxo-N-[5-(propan-2-yl)-1,2-oxazol-3-yl]-2,3,4,5-tetrahydro-1H-[1,4]diazepino[1,2-a]indole-8-carboxamide], the IC50 turned out to be 66 nM.
Consider `CCn1c(NC(=O)c2ccc3cc4n(c3c2)CCCNC4=O)nc2cc(C)ccc21` [Example 40, N-(1-ethyl-5-methyl-1H-benzimidazol-2-yl)-1-oxo-2,3,4,5-tetrahydro-1H-[1,4]diazepino[1,2-a]indole-8-carboxamide], for which the half-maximal inhibitory concentration (IC50) turned out to be 4.8 nM.
With `CN(C)CCCn1c(NC(=O)c2ccc3cc4n(c3c2)CC(F)(F)CNC4=O)nc2ccccc21` [Example 121, N-{1-[3-(dimethylamino)propyl]-1H-benzimidazol-2-yl}-4,4-difluoro-1-oxo-2,3,4,5-tetrahydro-1H-[1,4]diazepino[1,2-a]indole-8-carboxamide], the IC50 stood at 23 nM.
With `CC1CCNC(=O)c2cc3ccc(C(=O)Nc4nc5ccccc5[nH]4)cc3n21` (stereo not drawn) [Example 58, N-(1H-benzimidazol-2-yl)-5-methyl-1-oxo-2,3,4,5-tetrahydro-1H-[1,4]diazepino[1,2-a]indole-8-carboxamide] the figure was 0.77 nM; with `Cn1c(NC(=O)c2ccc3cc4n(c3c2)CCCNC4=O)nc2ccc(Cl)cc21` [Example 52, N-(6-chloro-1-methyl-1H-benzimidazol-2-yl)-1-oxo-2,3,4,5-tetrahydro-1H-[1,4]diazepino[1,2-a]indole-8-carboxamide], 170 nM; with `Cc1cc(NC(=O)c2ccc3cc4n(c3c2)CC2(CCC2)CNC4=O)no1` [Example 170, N-(5-methyl-1,2-oxazol-3-yl)-1′-oxo-2′,3′-dihydro-1′H-spiro[cyclobutane-1,4′-[1,4]diazepino[1,2-a]indole]-8′-carboxamide], 1300 nM.
Consider `O=C(Nc1cccnc1)c1ccc2cc3n(c2c1)CC1(CC1)CNC3=O` [Example 123, 1′-oxo-N-(pyridin-3-yl)-2′,3′-dihydro-1′H-spiro[cyclopropane-1,4′-[1,4]diazepino[1,2-a]indole]-8′-carboxamide], for which the IC50 was 430 nM.
As for `O=C(Nc1ccn(-c2ccccc2)n1)c1ccc2cc3n(c2c1)CCCNC3=O` [Example 14, 1-oxo-N-(1-phenyl-1H-pyrazol-3-yl)-2,3,4,5-tetrahydro-1H-[1,4]diazepino[1,2-a]indole-8-carboxamide], the IC50 was 108 nM.

Usually IC50 stands for the point on the concentration scale where inhibition reaches its midpoint.
